Paper PMC4138267 (Nature chemical biology, 2014)
Like-named read-outs stand apart in the source and are kept apart here. One block for each compound: values may come before it.

What was measured:
Type in all cases: cell-based
[1] = target: human D2 dopamine receptor (D2LR) (Homo sapiens, UniProt P14416); assay: ERK1/2 phosphorylation assay, Flp-In CHO cells expressing D2LR; conditions: for Logαβ: cooperativity with dopamine
[2] = target: D2R dimer: WT D2R (protomer A) + D2R-Gqi5 fusion (protomer B) (UniProt P14416+P21279); assay: Aequorin functional complementation assay, WT:WT pair; conditions: WT:WT complement pair; 100 µM dopamine
[3] = target: D2R dimer: WT D2R (protomer A) + D2-Asp114^3.32Ala-Gqi5 (protomer B) (Homo sapiens, UniProt P14416)
Val91^2.61Ala D2LR = Val91^2.61Ala D2LR (Homo sapiens, UniProt P14416, V91A); conditions: pERK1/2, interaction with dopamine
[4] = target: N-terminal c-myc-tagged WT D2LR (Homo sapiens, UniProt P14416); assay: ERK1/2 phosphorylation assay, Flp-In CHO cells, c-myc-tagged WT D2LR; conditions: pERK1/2, interaction with dopamine
[5] = KB, pERK1/2, probe ligand dopamine

human D2 dopamine receptor (D2LR), sequence (P14416 whole entry, the tested form may be a part): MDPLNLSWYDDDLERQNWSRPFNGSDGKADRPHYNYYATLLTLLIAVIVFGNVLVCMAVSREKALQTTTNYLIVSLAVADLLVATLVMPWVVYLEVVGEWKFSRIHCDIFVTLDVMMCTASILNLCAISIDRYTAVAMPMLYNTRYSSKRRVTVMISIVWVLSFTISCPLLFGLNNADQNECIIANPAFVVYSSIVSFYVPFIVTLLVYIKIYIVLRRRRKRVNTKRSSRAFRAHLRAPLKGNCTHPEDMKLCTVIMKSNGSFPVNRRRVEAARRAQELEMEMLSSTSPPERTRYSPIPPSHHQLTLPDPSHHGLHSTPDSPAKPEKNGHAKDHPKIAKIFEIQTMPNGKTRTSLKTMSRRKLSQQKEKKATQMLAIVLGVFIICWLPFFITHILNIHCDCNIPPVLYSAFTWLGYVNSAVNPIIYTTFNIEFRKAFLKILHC
D2R dimer: WT D2R (protomer A) + D2-Asp114^3.32Ala-Gqi5 (protomer B), sequence (P14416 1-414 isoform P14416-2): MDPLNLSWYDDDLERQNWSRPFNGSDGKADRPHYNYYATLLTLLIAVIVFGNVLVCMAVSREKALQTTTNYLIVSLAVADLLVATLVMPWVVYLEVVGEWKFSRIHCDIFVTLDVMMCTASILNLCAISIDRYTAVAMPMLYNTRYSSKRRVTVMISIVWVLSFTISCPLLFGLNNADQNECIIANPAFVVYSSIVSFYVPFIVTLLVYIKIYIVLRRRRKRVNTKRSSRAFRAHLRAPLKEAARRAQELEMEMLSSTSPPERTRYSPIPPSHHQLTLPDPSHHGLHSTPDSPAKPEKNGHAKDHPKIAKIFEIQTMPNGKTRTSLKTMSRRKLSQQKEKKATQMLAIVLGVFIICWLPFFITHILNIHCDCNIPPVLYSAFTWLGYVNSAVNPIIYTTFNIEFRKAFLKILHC
N-terminal c-myc-tagged WT D2LR, sequence (P14416 whole entry): as the sequence (P14416 whole entry, the tested form may be a part) above
Val91^2.61Ala D2LR, sequence (P14416 whole entry V91A): as the sequence (P14416 whole entry, the tested form may be a part) above, with V91A counted along it

SMILES: CCN1CCCC1CNC(=O)c1cc(S(N)(=O)=O)ccc1OC (stereo not drawn) [sulpiride]
extent of antagonism of dopamine [2]: completely inhibited
extent of antagonism of dopamine [3]: completely antagonized

SMILES: CCCN1CCc2ccc(C#N)cc2C1 [MIPS1071, 2-propyl-1,2,3,4-tetrahydroisoquinoline-7-carbonitrile]
Kb ([1]; KB, pERK1/2, probe ligand S-3PPP): 363 nM
Kb ([1]; KB, pERK1/2, probe ligand aripiprazole): 575 nM
Kb [1, 5]: 380 nM
Logαβ ([1]; pERK1/2): 1.00 ± 0.08
Schild Slope ([1]; pERK1/2, probe ligand S-3PPP): 1.11 ± 0.18
Schild Slope ([1]; pERK1/2, probe ligand aripiprazole): 0.94 ± 0.18

SMILES: N#Cc1ccc2c(c1)CNCC2 [THIQ7C, 1,2,3,4-tetrahydroisoquinoline-7-carbonitrile]
Kb [1, 5]: 2510 nM
Logαβ ([1]; pERK1/2): 1.03 ± 0.18
fold lower affinity than SB269652 ([1]; pERK1/2, probe ligand dopamine): 17 fold

Results, then the compound that gave them:

Kb [1]: 23.4 nM
Schild Slope ([1]; pERK1/2, probe ligand dopamine): 1.06 ± 0.04
SMILES: CC(=O)N[C@H]1CC[C@H](CCN2CCc3ccc(C#N)cc3C2)CC1 [MIPS1059, N-((trans)-4-(2-(7-cyano-3,4-dihydroisoquinolin-2(1H)yl)ethyl)cyclohexyl)acetamide]

Kb (Val91^2.61Ala D2LR): 891 nM
Kb [4]: 195 nM
SMILES: N#Cc1ccc2c(c1)CCN(CC[C@H]1CC[C@@H](NC(=O)c3cc4ccccc4[nH]3)CC1)C2 [MIPS1217]
